{"source": "patent US20240084258A1", "about": "“METHOD FOR PREPARING BROWN ADIPOCYTE” (KYOTO PREFECTURAL PUBLIC UNIVERSITY CORPORATION, priority 2015, published 2024)", "system": "human dermal fibroblasts (HDFs)", "experiment": "Oil Red O staining (Example 9)", "assay_type": "cell-based", "settings": "D4476 2 μM in addition to Rosiglitazone and T3, day 14, FIG. 9", "experimental": "The next day, the culture supernatant was removed by suction and, as described in the Figure, a normal medium, an adipocyte induction medium, or an adipocyte induction medium added with each low-molecular-weight compound and the like was added at 500 μL/well.\nThe adipocyte induction medium is a 10% FBS-added DMEM+MDI medium (10% FBS-added DMEM supplemented with 0.5 mM isobutylmethylxanthine (IBMX), 0.5 μM dexamethason and 1 μg/mL Insulin).\nThe concentrations of the additives are as follows: • T3: 1 nM • Rosiglitazone: 1 μM • D4476: 2 μM.\nThe culture medium was substituted by a fresh one every 3-4 days and the cells were cultured up to day 14.\nThe cells were washed 3 times with sterile distilled water, Oil Red O staining solution was added, and the mixture was incubated at room temperature for 15 min. Then the cells were washed with sterile distilled water and photographed at a magnification of 100 with a microscope."}
{"compound": "NC(=O)c1ccc(-c2nc(-c3ccc4c(c3)OCCO4)c(-c3ccccn3)[nH]2)cc1", "note": "[D4476, 4-[4-(2,3-dihydro-1,4-benzodioxin-6-yl)-5-(2-pyridlnyl-)1H-imidazol-2-yl]-benzamide]", "values": [{"measurement": "Oil Red O staining", "value": "remarkable Oil Red O staining as compared to the control"}]}
